{"source": "patent US11931403B2", "about": "“Compositions, systems, and methods for treating or reducing hypoxia-ischemia induced brain damage and neurobehavioral dysfunction in neonates” (UNIVERSITY OF MISSISSIPPI MEDICAL CENTER, priority 2019, dated 2024)", "key": {"[1]": {"set-up": "species or system Sprague-Dawley rats", "conditions": "rat, in vivo", "protocol": "Another set of animals were prepared for ELISA study. […] Total proteins were extracted using protein lysis buffer (Invitrogen).\nEx vivo whole brain and spinal cord imaging using live imaging devices (IVIS Spectrum imaging system) was performed to provide an accurate picture of the overall bio-distribution of fluorescent labeling insulin. […] To accurately assess bio-distribution of intranasal insulin, all tissues of interest were analyzed by ELISA."}, "[2]": {"tested_on": "neonatal piglet model of HI", "conditions": "bolus injection followed by continuous infusion, continued during HI exposure; cited from earlier work"}, "[3]": {"tested_on": "neonatal pig model of HI", "conditions": "IV, to prevent hyperglycemia during glucose infusion before HI injury; cited from earlier work"}}, "data": [{"substance": "Alexa 546-labeled insulin: fluorescent Alexa 546-labeled insulin (Nanocs Inc) used to study distribution in brain after intranasal application", "values": [{"measurement": "Delivery to the central nervous system (fluorescence imaging)", "setting": "[1]", "value": "delivered to the central nervous system at 15 minutes"}]}, {"substance": "regular insulin: regular insulin bolus and infusion to induce moderate hypoglycemia in a neonatal piglet HI model", "values": [{"measurement": "Brain injury with insulin-induced hypoglycemia", "setting": "[2]", "value": "not able to ameliorate brain injury"}]}, {"substance": "regular porcine insulin: IV regular porcine insulin used by LeBlanc et al. in a neonatal pig model of HI", "values": [{"measurement": "Outcome of piglets in the insulin group", "setting": "[3]", "value": "fared slightly better"}]}]}
